Assay results from paper PMC9586930, “Molecular insights into the distinct signaling duration for the peptide-induced PTH1R activation” (Nature Communications, 2022).
Substitutions are numbered along the chain they refer to.

Legend:
PTH1R Q440A mutant = target: T1, PTH1R Q440A mutant (Homo sapiens, UniProt Q03431, Q440A); test: cAMP accumulation assay (GloSensor), PTH1R Q440A; format: cell-based; details: for ΔpEC50±SEM: relative to WT, n = 3 in triplicate; for ΔpEC50±SEM / Span±SEM: mean ± SEM; for Span±SEM: window between maximal response (Emax) and vehicle, n = 3
T1 construct: a flag-tag was fused to the N terminal of full-length PTH1R (WT or mutant); expressed in transfected cells; host or cells: HEK293T
T1 sequence (Q03431 27-593 Q440A): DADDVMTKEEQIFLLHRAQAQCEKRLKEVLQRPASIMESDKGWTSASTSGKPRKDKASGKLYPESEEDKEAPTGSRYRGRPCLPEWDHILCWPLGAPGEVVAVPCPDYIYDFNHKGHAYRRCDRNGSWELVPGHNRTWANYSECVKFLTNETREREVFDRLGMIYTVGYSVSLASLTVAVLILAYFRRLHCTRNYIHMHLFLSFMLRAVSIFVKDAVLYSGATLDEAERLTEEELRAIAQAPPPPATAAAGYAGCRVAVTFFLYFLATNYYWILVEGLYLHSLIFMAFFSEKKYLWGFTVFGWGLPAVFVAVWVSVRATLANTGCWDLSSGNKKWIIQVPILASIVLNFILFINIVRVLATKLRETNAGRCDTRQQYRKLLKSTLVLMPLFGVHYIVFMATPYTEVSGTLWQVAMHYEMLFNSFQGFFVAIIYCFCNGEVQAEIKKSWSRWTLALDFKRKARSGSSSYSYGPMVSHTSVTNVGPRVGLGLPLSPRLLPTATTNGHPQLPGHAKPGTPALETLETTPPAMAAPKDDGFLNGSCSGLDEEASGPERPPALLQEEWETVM
Procedure: Human embryonic kidney 293 T (HEK293T, ATCC: CRL-1573) cells were transfected with a plasmid mixture consisting of pcDNA3.1-flag-PTH1R (WT or mutants) and the cAMP biosensor GloSensor-22F (Promega) at a ratio of 2:1 (see Supplementary Table 7 for a list of primers used in this study). After 24 h, transfected cells were plated onto a 384-well plate, which was treated with cell adherent reagent (Applygen) in advance. After another 12 h, cells were treated with Hank’s balanced salt solution for starvation and then incubated in CO2-independent media containing 4% GloSensor cAMP Reagent (Promega) at a volume of 5 μl per well and incubated for 20 min at RT before measurements for baseline luminescence (Spark Multimode microplate reader, TECAN). Next, test ligands were added at different concentrations from 10^−6 to 10^−13 M before second measurement. Finally, data were normalized to 100% of the maximal PTH (1-34) response for WT PTH1R using a sigmoidal dose-response in GraphPad Prism.
Statistical analyses were performed on at least three individual datasets and analysed using GraphPad Prism software. Bars represent differences in the calculated agonist potency (pEC50) and maximum agonist response (Emax) for each mutant relative to the WT receptor. Data are mean± s.e.m. from at least three independent experiments, performed in triplicates. ns, not significant, ^nsP > 0.01; ^*P < 0.01; ^**P < 0.001; ^***P < 0.0001 (one-way analysis of variance (ANOVA) followed by Dunnett’s test, compared with the response of the WT). For dose-response experiments, data were normalized and analyzed using nonlinear curve fitting for the log (agonist) versus response (three parameters) curves.

PTH1R (WT) = target: T2, PTH1R (WT) (Homo sapiens, UniProt Q03431); test: Wash out assay, duration of cAMP signaling; format: cell-based; details: ligand 10^-6 M, 10 min ligand-on phase, 70 min wash-out phase, HEK293T, GloSensor
T2 construct: a flag-tag was fused to the N terminal of full-length PTH1R (WT or mutant); expressed in transfected cells; host or cells: HEK293T
T2 sequence (Q03431 27-593): T1 sequence (Q03431 27-593 Q440A) with A414Q
Procedure: Human embryonic kidney 293 T (HEK293T) cells were transfected with a plasmid mixture consisting of pcDNA3.1-flag-PTH1R (WT) and the cAMP biosensor GloSensor-22F (Promega) at a ratio of 2:1. After 24 h, transfected cells were plated onto a 96-well plate, which was treated with cell adherent reagent (Applygen) in advance. After another 12 h, cells were treated with Hank’s balanced salt solution for starvation and then incubated in CO2-independent media containing 4% GloSensor cAMP Reagent (Promega) at a volume of 40 μl per well and incubated for 20 min at RT before measurements for baseline luminescence (Spark Multimode microplate reader, TECAN). Next, test ligands (10 μl) were added at 10^−6 M that approximated the respective Emax (efficacy) value obtained for that “ligand- on” phase were similar for the different ligands. Then the development of cAMP-dependent luminescence was measured for 10 min (“ligand-on” phase); the plates were then removed from the plate reader, the cells were rinsed twice to remove unbound ligand, treated with fresh media containing luciferin, and luminescence was again recorded for an additional 70 min (“wash-out” phase)[18]. Finally, data were analyzed using GraphPad Prism.

span (from the WT) (PTH1R Q440A mutant; PTH1R Q4407.38A, replicate 1)	ΔpEC50 (from the WT) (PTH1R Q440A mutant; PTH1R Q4407.38A, replicate 1)	span (from the WT) (PTH1R Q440A mutant; PTH1R Q4407.38A, replicate 2)	ΔpEC50 (from the WT) (PTH1R Q440A mutant; PTH1R Q4407.38A, replicate 2)	span (from the WT) (PTH1R Q440A mutant; PTH1R Q4407.38A, replicate 3)	ΔpEC50 (from the WT) (PTH1R Q440A mutant; PTH1R Q4407.38A, replicate 3)	ΔpEC50±SEM (PTH1R Q440A mutant)	ΔpEC50 (from the WT) (PTH1R Q440A mutant; replicate 1)	ΔpEC50 (from the WT) (PTH1R Q440A mutant; replicate 2)	ΔpEC50 (from the WT) (PTH1R Q440A mutant; replicate 3)	Span±SEM (PTH1R Q440A mutant)	Substance	duration of cAMP signaling after wash-out (PTH1R (WT))
337.5	-0.045	279.8	-0.009	250.7	0.015	-0.01±0.02	-0.045	-0.009	0.015	289.33±25.51	H-AVAEIQLMHQRAKWIQDARRRAFLHKLIAEIHTAEI-OH [LA-PTH, long-acting PTH analog, modified PTH/PTHrP hybrid]	stronger activity of sustained signaling when compared with the PTH
372.2	-0.177	273.2	-0.116	248	-0.201	-0.16±0.03	-0.177	-0.116	-0.201	297.80±37.90	H-SVSEIQLMHNLGKHLNSMERVEWLRKKLQDVHNF-OH [PTH, Teriparatide, human PTH 1-34, long-acting peptide agonist of PTH1R]	potent prolonged cAMP signaling

Substance	span (from the WT) (PTH1R Q440A mutant; PTH1R Q4407.38A, replicate 1)	ΔpEC50 (from the WT) (PTH1R Q440A mutant; PTH1R Q4407.38A, replicate 1)	span (from the WT) (PTH1R Q440A mutant; PTH1R Q4407.38A, replicate 2)	ΔpEC50 (from the WT) (PTH1R Q440A mutant; PTH1R Q4407.38A, replicate 2)	span (from the WT) (PTH1R Q440A mutant; PTH1R Q4407.38A, replicate 3)	ΔpEC50 (from the WT) (PTH1R Q440A mutant; PTH1R Q4407.38A, replicate 3)	ΔpEC50±SEM (PTH1R Q440A mutant)	ΔpEC50 (from the WT) (PTH1R Q440A mutant; replicate 1)	ΔpEC50 (from the WT) (PTH1R Q440A mutant; replicate 2)	ΔpEC50 (from the WT) (PTH1R Q440A mutant; replicate 3)	Span±SEM (PTH1R Q440A mutant)	duration of cAMP signaling after wash-out (PTH1R (WT))
H-AVSEHQLLHDKGKSIQDLRRRELLEKLL-{Aib}-KLHTA-NH2 [ABL, Abaloparatide, an analog of PTHrP, short-acting PTH1R agonist]	252.6	-1.026	278.7	-0.991	338	-1.125	-1.05±0.04	-1.026	-0.991	-1.125	289.77±25.27	obvious transient cAMP signaling
